Test system: hNCC(V231M)
Experiment: 125I- uptake assay, hNCC(V231M) variant
Type: cell-based, human
Conditions: V231M polymorphism
Protocol: HEK293S cell lines, cultured in 293 Freestyle medium (Life Technologies; plus 10% fetal bovine serum), stably expressing hNCC and its variants were generated following published protocols. Cells were transfected using Lipofectamine 3000 (Invitrogen) with a pSBbi-RP-based plasmid containing hNCC or its variants and the SB100X vector. Puromycin (2 μg/mL; Gemini Bio-Products) was used for selection of stable cell lines.
To prepare for the uptake experiment, cells were plated at 0.5 × 10^6 cells/well in 24-well plates one day in advance. To activate NCC, cells were treated with a chloride-free hypotonic solution composed of 67.5 mM sodium-, 2.5 mM potassium-, 0.25 mM magnesium-, and 0.25 mM calcium-gluconate, as well as 7.5 mM HEPES pH 7.4 (buffered using Tris) at 37 °C for 10 min[72]. After the activation step, the experiments were carried out at room temperature. Ten minutes before the start of ^125I^− uptake, 70 μM Bumetanide (Thermo Scientific Chemicals) and 100 μM 4,4′-diisothiocyanatostilbene-2,2′-disulfonic acid (DIDS; Sigma) were added to suppress background iodide uptake activity. Indicated thiazide diuretics were also added to the indicated concentrations 10 min before the start of ^125I^− uptake. The original buffer was switched to an uptake buffer composed of 135 mM Na-gluconate, 5 mM K-gluconate, 1 mM Mg-gluconate, 1 mM Ca-gluconate, 70 μM bumetanide, 100 μM DIDS, 1 mM NaI, 0.25 μCi/ml Na^125I (American Radiolabeled Chemicals, Inc.), and 15 mM HEPES pH 7.4 (buffered using Tris), in the presence or absence of thiazide diuretics to initiate ^125I^− uptake. The ^125I^− uptake process lasted 1 h and was stopped by two rapid washes using ice-cold 110 mM MgCl2. Cells lysed using 1% sodium dodecyl sulfate (SDS) were analyzed by scintillation counting.
To calculate the fold change of the half-maximal inhibitory concentration (IC50) between hNCC(WT) and different hNCC variants, individual dose-response curves were normalized first using the smallest mean and the value of the lowest concentration as 0% and 100%, respectively. The normalized data were then fitted using the “EC50 shift” nonlinear regression in GraphPad Prism 10 with the shared EC50Control assigned to be the IC50 of hNCC(WT). The following constraints were used in the EC50 shift analysis. The EC50Control was set to be shared across all curves under analysis and constrained to be greater than 0. The EC50Ratio was constrained to be greater than 0. The bottom, top, and HillSlope were constrained to be 0, 100, and −1, respectively. For Fig. 1f, g and Supplementary Fig. 2d, GraphPad Prism 10 was used to perform curve fitting and IC50 calculation for normalized data using y = 100/(1 + (x/IC50)).

NS(=O)(=O)c1cc2c(cc1Cl)NCNS2(=O)=O [hydrochlorothiazide]
sensitivity relative to hNCC(WT) (fold lower): nearly as sensitive as the wild-type
